Active and inactive are the calls of the source.
Experiments:
[1] = Luminescence Cell-Based Dose Retest to Confirm Inhibitors of Cancer Stem Cells. [Related pubchem assays (depositor defined):AID2717, AID2721]; assay type: functional; details: Homo sapiens
[2] = biological target: T1, Type-1 angiotensin II receptor (Homo sapiens, UniProt P30556); test: AT1 receptor antagonists, dose response, selectivity assay for APJ receptor antagonist project, cell-based, uHTS hits (AID 463214); assay type: functional;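 also: antagonist potency against angiotensin II stimulated AT1 response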
T1 sequence (P30556 whole entry): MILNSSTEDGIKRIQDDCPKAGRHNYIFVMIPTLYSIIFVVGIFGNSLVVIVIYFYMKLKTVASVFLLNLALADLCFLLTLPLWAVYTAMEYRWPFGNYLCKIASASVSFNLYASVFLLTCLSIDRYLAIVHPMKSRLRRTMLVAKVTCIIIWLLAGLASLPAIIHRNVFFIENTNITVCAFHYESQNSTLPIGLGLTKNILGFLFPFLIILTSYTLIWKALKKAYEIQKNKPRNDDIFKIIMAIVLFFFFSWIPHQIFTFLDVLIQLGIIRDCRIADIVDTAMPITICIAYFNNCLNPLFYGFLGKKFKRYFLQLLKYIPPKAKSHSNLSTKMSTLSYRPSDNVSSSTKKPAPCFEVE

Beta-galactosidase = Beta-galactosidase (Escherichia coli, UniProt Q8VNN2); test: PubChem AID 485352; assay type: functional
Beta-galactosidase, sequence (Q8VNN2 whole entry): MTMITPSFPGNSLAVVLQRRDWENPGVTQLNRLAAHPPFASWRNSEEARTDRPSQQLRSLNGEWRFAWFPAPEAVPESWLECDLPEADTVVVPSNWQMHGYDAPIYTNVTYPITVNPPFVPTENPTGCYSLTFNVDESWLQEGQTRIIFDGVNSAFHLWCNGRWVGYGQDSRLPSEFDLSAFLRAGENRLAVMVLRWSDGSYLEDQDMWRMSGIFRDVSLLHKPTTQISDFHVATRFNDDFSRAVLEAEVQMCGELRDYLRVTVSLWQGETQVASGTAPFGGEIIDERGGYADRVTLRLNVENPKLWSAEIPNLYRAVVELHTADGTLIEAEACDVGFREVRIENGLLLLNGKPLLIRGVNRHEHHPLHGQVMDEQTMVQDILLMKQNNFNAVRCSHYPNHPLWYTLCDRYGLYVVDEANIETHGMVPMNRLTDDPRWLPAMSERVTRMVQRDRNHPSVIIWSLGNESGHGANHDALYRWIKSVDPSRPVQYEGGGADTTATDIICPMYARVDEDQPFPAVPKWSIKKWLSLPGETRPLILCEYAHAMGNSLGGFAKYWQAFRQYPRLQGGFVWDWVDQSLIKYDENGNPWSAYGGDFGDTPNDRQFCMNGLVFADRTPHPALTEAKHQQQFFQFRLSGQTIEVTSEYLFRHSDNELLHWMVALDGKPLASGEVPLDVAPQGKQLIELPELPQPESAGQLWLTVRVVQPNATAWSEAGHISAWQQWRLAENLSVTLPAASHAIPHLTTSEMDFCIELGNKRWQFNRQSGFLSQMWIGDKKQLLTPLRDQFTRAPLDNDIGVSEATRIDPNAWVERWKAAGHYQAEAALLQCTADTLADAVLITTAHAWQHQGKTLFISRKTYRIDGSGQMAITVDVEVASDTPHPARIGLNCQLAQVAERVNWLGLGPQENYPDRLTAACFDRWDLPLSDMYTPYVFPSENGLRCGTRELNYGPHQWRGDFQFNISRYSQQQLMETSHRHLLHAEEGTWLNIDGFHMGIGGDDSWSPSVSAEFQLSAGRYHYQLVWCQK

INS1 = test: beta cell apoptosis inhibitors, cytokine rescue, dose response, luminescence, retest (AID 449756); assay type: functional, cell-based; details: Rattus norvegicus;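 also: cell death triggered by IL-1 beta plus TNF-alpha plus IFN-gamma mixture; protective hits raise ATP signal compared with cytokine alone wells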
H9c2 = test: cells; assay type: functional, cell-based; details: Rattus norvegicus, H9c2, Myocardium;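 also: confirmatory concentration-response retest of ultra-high-throughput screening hits for modulation of myocardial damage; cell death induced by hydrogen peroxide oxidative stress; compound pretreatment for 60 min then peroxide exposure for 2 h; potency is for protecting the cells against peroxide damage rather than for killing them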
[3] = biological target: Glucose-6-phosphate 1-dehydrogenase (Homo sapiens, UniProt P11413); test: human G6PD enzyme inhibitors, dose response, selectivity assay for P. falciparum G6PD inhibitor project, biochemical, fluorescence (AID 504792); assay type: functional
Glucose-6-phosphate 1-dehydrogenase, sequence (P11413 whole entry): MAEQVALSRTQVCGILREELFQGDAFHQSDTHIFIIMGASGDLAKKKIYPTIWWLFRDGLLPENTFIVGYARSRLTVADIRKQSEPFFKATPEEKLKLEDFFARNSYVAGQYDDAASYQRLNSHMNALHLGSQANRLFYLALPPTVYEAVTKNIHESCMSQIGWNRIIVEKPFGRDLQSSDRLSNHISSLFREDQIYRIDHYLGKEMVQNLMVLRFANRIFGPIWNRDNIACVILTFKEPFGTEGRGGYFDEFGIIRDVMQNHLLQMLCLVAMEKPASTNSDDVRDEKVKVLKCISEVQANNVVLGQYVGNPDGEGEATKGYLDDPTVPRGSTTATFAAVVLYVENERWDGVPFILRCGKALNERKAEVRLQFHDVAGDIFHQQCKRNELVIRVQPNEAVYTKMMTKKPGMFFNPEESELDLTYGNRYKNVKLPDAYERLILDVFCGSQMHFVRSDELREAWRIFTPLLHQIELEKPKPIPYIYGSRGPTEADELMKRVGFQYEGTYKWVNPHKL

A-375 [4] = test: A375 melanoma cell viability reduction, dose response, counter-screen for MITF modulator project, cherry-pick samples, set 2 (AID 540335); assay type: functional, cell-based; details: Homo sapiens
A-375 [5] = test: MITF: Counter assay: A375 proliferation Measured in Cell-Based System Using Plate Reader - 2084-03_Inhibitor_Dose_DryPowder_Activity. [Related pubchem assays (depositor defined):AID488944]; assay type: functional; details: Homo sapiens
[6] = biological target: T2, Calpain-2 catalytic subunit (Sus scrofa, UniProt P43367); test: pig calpain II inhibitor potency, dose response, biochemical, fluorogenic peptide substrate (AID 1420); assay type: functional
T2 sequence (P43367 whole entry): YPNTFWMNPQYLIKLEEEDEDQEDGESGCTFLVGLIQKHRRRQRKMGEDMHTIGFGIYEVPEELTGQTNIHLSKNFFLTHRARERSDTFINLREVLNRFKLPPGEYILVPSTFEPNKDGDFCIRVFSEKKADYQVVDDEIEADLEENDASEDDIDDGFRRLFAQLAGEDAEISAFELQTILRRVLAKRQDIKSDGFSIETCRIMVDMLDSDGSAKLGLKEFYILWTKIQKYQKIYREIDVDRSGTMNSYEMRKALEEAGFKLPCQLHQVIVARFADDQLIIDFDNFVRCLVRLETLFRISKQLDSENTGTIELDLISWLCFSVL

[7] = C. albicans growth with fluconazole, confirmation, fluorescence, retest (AID 2467); assay type: functional, cell-based
[8] = biological target: T3, Serine/threonine-protein phosphatase (Candida dubliniensis (strain CD36 / CBS 7987 / NCPF 3949 / NRRLY-17841) (Yeast), UniProt B9W6M3); test: Fluorescence Cell-Based Secondary Assay to Identify Inhibitors of Calcineurin. [Related pubchem assays (depositor defined):AID1979, AID2007]; assay type: functional
T3 sequence (B9W6M3 whole entry): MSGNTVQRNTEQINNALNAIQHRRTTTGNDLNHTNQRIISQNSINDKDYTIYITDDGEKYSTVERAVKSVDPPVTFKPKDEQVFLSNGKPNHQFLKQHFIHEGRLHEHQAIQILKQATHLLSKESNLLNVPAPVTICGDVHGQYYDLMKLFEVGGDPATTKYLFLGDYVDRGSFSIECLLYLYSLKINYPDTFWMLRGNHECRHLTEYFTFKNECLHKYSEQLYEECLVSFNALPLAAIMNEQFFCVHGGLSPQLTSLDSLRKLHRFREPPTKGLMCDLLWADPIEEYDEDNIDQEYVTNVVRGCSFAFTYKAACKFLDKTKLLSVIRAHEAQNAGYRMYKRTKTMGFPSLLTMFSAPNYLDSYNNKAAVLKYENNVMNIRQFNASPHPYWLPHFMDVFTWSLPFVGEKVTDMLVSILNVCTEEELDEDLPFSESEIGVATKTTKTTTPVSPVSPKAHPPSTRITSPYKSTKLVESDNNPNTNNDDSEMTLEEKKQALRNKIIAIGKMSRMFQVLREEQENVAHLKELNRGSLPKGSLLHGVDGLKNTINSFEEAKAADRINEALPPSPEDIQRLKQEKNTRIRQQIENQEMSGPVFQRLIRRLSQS

[9] = biological target: ATP-dependent molecular chaperone HSP82 (Candida albicans (strain WO-1) (Yeast), UniProt C4YTQ8); test: loss of DOC-induced GRE-beta-galactosidase reporter signal, dose response, Hsp90 inhibitor project, S. cerevisiae, luminescence (AID 2400); assay type: functional, cell-based;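 also: beta-galactosidase luminescence from glucocorticoid response element reporter as proxy for Hsp90 function; inhibitor potency where signal loss means Hsp90 inhibition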
ATP-dependent molecular chaperone HSP82, sequence (C4YTQ8 whole entry, the tested form may be a part): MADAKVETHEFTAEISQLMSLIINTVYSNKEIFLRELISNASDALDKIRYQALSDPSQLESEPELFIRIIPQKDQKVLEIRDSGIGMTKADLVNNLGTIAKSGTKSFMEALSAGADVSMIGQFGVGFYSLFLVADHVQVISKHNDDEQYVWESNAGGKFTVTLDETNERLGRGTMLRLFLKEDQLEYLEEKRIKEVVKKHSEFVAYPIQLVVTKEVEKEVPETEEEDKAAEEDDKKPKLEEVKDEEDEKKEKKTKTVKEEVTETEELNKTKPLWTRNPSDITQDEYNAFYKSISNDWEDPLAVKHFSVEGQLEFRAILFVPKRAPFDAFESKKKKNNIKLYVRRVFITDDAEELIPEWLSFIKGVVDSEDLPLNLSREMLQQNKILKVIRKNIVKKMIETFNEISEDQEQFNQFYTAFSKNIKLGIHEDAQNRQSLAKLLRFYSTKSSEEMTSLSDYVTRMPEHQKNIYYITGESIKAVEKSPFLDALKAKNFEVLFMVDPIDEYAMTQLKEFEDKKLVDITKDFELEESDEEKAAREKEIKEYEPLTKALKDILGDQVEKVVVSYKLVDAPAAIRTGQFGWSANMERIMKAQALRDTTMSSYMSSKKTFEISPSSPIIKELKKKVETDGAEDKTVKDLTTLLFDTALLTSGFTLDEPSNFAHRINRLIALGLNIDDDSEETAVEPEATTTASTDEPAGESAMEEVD

[10] = biological target: Hepatocyte nuclear factor 4-alpha (Homo sapiens, UniProt P41235); assay type: functional, cell-based;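 also: biochemical luminescence-based dose-response counterscreen measuring inhibition of HNF4 dimerization, run alongside a screen for blockers of ABHD5–perilipin-5 interaction; split luciferase complementation of HNF4 fusion proteins in cell lysate measuring dimerization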
Genome polyprotein = Genome polyprotein (dengue virus type 2, UniProt P29990); test: Dengue-2 NS5 methyltransferase inhibitors, primary screen, biochemical, confirmation dose response (AID 588689); assay type: functional
Genome polyprotein, sequence (P29990 2492-3391 limits assumed): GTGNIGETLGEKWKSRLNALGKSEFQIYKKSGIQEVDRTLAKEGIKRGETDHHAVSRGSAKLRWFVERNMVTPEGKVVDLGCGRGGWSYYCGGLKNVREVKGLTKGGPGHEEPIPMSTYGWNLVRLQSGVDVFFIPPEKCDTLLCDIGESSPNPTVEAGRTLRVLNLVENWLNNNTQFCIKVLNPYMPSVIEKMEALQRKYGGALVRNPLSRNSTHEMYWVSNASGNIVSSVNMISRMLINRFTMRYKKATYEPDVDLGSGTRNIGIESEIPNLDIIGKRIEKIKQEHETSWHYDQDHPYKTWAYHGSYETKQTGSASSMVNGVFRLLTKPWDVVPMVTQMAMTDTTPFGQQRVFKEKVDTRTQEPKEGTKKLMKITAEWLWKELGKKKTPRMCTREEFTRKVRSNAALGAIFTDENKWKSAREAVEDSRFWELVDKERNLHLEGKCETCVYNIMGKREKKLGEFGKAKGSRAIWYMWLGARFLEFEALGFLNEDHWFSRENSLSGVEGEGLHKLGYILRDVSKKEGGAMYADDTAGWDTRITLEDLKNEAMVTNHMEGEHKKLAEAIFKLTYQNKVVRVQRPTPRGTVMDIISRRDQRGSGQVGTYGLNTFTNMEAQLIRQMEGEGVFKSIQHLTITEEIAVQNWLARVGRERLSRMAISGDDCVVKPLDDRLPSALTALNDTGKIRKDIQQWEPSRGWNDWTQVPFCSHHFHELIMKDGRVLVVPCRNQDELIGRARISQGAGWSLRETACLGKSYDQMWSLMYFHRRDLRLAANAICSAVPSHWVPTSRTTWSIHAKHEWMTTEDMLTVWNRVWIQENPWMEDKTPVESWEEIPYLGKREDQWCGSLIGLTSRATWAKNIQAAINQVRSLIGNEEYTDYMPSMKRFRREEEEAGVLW

[11] = NIH-3T3 fibroblast cytotoxicity, dose response, cytotoxicity control, cell-based, fluorescence, Alamar Blue, secondary assay (AID 2327); assay type: functional;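 also: NIH-3T3 mouse fibroblasts cultured with fluconazole at 8 µg/mL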
[12] = biological target: T4, Mannose-6-phosphate isomerase (Homo sapiens, UniProt P34949); test: human PMI inhibitors, high substrate, primary screen, biochemical, fluorescence intensity, high mannose 6-phosphate (AID 1220)
T4 sequence (P34949 whole entry): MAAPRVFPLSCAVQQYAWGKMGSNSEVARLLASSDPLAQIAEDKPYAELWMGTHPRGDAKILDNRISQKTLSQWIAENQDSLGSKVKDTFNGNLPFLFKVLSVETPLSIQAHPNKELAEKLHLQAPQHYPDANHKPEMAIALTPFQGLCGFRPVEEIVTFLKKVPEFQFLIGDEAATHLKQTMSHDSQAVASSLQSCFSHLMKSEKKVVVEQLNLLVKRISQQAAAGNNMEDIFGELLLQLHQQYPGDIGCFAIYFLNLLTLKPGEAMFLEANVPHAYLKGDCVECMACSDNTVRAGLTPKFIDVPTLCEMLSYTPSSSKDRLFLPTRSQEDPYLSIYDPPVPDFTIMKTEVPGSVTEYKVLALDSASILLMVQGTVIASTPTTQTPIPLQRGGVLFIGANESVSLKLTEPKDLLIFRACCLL

Melanocortin receptor 4 = Melanocortin receptor 4 (Homo sapiens, UniProt P32245); assay type: functional, cell-based;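 also: Cell-based assay with luminescence read-out, confirmatory dose-response testing for agonist activity of biased ligands at MC4R; human U2OS cells with tagged receptor and beta-arrestin; potency of agonists that increase receptor coupling to beta-arrestin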
Melanocortin receptor 4, sequence (P32245 whole entry): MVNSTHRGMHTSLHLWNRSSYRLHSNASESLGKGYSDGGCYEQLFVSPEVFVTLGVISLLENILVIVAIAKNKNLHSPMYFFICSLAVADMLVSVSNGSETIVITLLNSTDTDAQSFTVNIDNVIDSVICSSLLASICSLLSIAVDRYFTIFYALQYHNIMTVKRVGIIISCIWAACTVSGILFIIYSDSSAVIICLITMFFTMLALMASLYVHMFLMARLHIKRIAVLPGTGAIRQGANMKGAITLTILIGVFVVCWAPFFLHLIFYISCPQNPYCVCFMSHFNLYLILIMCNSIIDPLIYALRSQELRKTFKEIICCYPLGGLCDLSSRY

[13] = biological target: T3, Serine/threonine-protein phosphatase; test: calcineurin pathway inhibitors in yeast reporter, dose response, S. cerevisiae, CDRE-lacZ, luminescence, secondary (AID 2388); assay type: functional, cell-based;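 also: yeast reporter cells carrying a calcineurin-responsive lacZ construct stimulated with calcium chloride; luminescent beta-galactosidase reporter signal in whole cells rather than isolated phosphatase activity; potency for inhibition where a drop in reporter signal means calcineurin blockade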
[14] = biological target: Heat shock protein HSP 90-alpha (Homo sapiens, UniProt P07900); assay type: functional, organism-based
Mu-type opioid receptor = Mu-type opioid receptor (Homo sapiens, UniProt P35372); test: Counterscreen for agonists of heterodimerization of the mu 1 (OPRM1) and delta 1 (OPRD1) opioid receptors: Luminescence-based cell-based high throughput dose response assay to identify agonists of OPRM1 homodimerization.; assay type: functional;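 also: U2OS cells expressing OPRM1 and beta-arrestin as split beta-galactosidase partners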
Mu-type opioid receptor, sequence (P35372 whole entry): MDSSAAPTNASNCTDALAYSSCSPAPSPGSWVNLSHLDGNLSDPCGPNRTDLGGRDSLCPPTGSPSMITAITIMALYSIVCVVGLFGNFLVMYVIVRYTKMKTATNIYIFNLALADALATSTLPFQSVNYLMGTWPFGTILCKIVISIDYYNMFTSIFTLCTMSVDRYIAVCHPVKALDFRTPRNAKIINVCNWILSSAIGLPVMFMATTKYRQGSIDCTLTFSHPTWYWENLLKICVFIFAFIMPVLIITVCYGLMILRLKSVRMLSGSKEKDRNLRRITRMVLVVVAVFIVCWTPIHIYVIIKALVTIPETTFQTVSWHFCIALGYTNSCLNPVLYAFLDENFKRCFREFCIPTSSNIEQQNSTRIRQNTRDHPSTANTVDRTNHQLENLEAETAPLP

[15] = biological target: 5-hydroxytryptamine receptor 5A (Homo sapiens, UniProt P47898); test: Counterscreen for agonists of OPRM1-OPRD1 heterodimerization: luminescence-based cell-based high throughput dose response assay to identify agonists of 5-hydroxytryptamine (serotonin) 5A receptor (HTR5A). [Related pubchem assays (depositor defined):AID504326, AID504355, AID504692, AID504904, AID504905]; assay type: functional
5-hydroxytryptamine receptor 5A, sequence (P47898 whole entry): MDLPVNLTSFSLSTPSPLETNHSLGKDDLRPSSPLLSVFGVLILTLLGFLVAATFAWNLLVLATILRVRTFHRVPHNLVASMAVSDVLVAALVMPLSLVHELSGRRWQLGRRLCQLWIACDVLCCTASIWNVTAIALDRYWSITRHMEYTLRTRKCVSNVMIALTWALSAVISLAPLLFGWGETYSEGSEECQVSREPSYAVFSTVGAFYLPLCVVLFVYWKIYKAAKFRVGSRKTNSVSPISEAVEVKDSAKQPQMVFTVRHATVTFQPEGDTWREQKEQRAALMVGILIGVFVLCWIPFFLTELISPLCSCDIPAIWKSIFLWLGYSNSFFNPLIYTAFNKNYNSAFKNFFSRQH

[16] = biological target: Delta-type opioid receptor (Homo sapiens, UniProt P41143); test: Counterscreen for agonists of heterodimerization of the mu 1 (OPRM1) and delta 1 (OPRD1) opioid receptors: Luminescence-based cell-based high throughput dose response assay to identify agonists of OPRD1 homodimerization. [Related pubchem assays (depositor defined):AID504326, AID504355, AID504692, AID504904, AID504905]; assay type: functional
Delta-type opioid receptor, sequence (P41143 whole entry): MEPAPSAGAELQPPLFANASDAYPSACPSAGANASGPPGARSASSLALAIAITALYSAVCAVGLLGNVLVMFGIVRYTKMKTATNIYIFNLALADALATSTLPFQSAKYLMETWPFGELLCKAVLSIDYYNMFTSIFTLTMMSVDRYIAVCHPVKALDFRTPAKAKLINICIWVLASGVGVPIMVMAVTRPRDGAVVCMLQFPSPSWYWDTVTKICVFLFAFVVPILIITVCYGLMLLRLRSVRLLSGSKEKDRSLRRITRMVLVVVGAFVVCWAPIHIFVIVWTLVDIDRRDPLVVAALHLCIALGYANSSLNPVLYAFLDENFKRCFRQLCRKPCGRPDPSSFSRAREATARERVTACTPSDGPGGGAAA

[17] = biological target: T5, Short transient receptor potential channel 4 (Mus musculus, UniProt Q9QUQ5); test: mouse TRPC4 channel activators, dose response, cell-based, HEK293 TRPC4/mu-opioid, Fluo-4 calcium (AID 434937); assay type: functional
T5 sequence (Q9QUQ5 whole entry): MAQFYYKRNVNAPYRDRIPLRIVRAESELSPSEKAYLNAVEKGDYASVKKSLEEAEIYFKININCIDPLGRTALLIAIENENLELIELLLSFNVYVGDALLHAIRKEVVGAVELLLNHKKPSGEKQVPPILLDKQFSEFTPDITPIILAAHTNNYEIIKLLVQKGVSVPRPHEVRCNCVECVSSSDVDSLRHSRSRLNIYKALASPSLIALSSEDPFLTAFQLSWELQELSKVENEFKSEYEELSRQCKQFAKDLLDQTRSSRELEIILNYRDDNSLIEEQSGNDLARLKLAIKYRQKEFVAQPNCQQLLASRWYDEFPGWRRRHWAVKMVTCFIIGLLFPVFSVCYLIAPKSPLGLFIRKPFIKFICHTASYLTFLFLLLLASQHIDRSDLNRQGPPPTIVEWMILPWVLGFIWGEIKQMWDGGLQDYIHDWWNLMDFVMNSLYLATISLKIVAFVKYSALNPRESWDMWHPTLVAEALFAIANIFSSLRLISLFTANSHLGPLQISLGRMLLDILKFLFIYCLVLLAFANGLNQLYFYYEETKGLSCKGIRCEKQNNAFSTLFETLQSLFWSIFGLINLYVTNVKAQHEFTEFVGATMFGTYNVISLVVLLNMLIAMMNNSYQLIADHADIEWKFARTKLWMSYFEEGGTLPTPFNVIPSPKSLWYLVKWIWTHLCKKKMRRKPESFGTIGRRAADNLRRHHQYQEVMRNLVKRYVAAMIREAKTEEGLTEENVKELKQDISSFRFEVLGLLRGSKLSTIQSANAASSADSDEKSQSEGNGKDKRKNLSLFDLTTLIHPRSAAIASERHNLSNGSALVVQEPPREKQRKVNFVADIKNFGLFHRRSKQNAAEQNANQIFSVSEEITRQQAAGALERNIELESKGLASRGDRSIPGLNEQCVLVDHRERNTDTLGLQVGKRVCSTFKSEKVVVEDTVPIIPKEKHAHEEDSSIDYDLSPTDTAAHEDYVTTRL

[18] = biological target: T6, Nuclear receptor subfamily 0 group B member 1 (Homo sapiens, UniProt P51843); test: Luminescence-based cell-based high throughput dose response assay for inhibitors of the orphan nuclear receptor subfamily 0, group B, member 1 (DAX1; NR0B1). [Related pubchem assays (depositor defined):AID504766, AID504790]; assay type: functional
T6 sequence (P51843 whole entry): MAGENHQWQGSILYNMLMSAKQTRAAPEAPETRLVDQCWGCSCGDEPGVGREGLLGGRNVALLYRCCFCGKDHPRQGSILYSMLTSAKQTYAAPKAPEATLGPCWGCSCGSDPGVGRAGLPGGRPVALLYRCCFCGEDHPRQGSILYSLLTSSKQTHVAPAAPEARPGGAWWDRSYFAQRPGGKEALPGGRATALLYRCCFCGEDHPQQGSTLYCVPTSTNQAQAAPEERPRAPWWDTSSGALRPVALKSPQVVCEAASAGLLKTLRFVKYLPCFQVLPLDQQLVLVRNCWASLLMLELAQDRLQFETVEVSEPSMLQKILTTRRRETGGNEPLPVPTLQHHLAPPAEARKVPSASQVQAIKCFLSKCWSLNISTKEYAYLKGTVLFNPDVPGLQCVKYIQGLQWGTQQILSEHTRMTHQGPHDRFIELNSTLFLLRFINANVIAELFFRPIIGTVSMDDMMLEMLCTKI

HEK293 = test: cells; assay type: functional, cell-based; details: Homo sapiens

CC1(C)Cc2c(c(N3CCOCC3)nc3sc4c(NN)ncnc4c23)CS1
AC50 [1]: 7.43 µM (active)
IC50 [2]: 16.8 µM (active)
EC50 (Beta-galactosidase): > 40 µM (inactive)
AC50 (INS1): 2.08 µM (active)
IC50 (H9c2): 10 µM (active)

O=C(Nc1ccc(N2CCOCC2)c(Cl)c1)c1ccc(Cl)cc1
IC50 [3]: > 80 µM (inactive)

Cc1ccc2oc(=O)n(CCCOc3ccccc3)c2c1
AC50 (A-375 [4]): > 35 µM (active)
AC50 (A-375 [5]): > 35 µM (active)

Cc1cccc(OCC(=O)Nc2cccc(O)c2)c1
AC50 (A-375 [4]): > 35 µM (active)
AC50 (A-375 [5]): > 35 µM (active)

CCN(CC)c1ccc(C(=O)NC(=S)Nc2cc(S(=O)(=O)N3CCOCC3)ccc2-n2cncn2)cc1
IC50 [2]: > 40 µM (not active)
IC50 [6]: 9.89 µM (not active)
EC50 (Beta-galactosidase): > 40 µM (inactive)

Cc1ccc(C(=O)c2coc3c2C(=O)C(=O)c2ccccc2-3)cc1
EC50 [7]: 0.983 µM (active)
EC50 [8]: 9.27 µM (active)
EC50 [9]: 1.21 µM (active)
IC50 [10]: 3.8 µM (active)
IC50 (Genome polyprotein): 55 µM (active)
EC50 [11]: 27.9 µM (active)
IC50 [12]: > 50 µM (not active)
EC50 (Melanocortin receptor 4): > 89.2 µM (inactive)
EC50 [13]: 3.78 µM (active)
AC50 [14]: 3.84 µM (active)

Cc1ccc(/C=C/C(=O)N2CCN(S(=O)(=O)c3ccc(C)c(C)c3)CC2)o1
IC50 [3]: > 80 µM (inactive)

CN(C)C(CN=C(S)Nc1ccccc1Cl)c1cccnc1 (stereo not given)
EC50 (Mu-type opioid receptor): 3.64 µM (active)
EC50 [15]: > 92.5 µM (inactive)
EC50 [16]: 26.9 µM (inactive)
EC50 [17]: 0.0333 µM (active)

CCOC(=O)C1(c2ccccc2)CCN(CCC(=O)Nc2ccc(F)cc2)CC1
EC50 (Mu-type opioid receptor): > 92.5 µM (inactive)
EC50 [15]: > 92.5 µM (inactive)
EC50 [16]: > 92.5 µM (inactive)

C/C(=N\NC(=S)NC1CCCCC1)c1ccc(Cl)c(Cl)c1
IC50 [18]: > 67.5 µM (inactive)
IC50 (HEK293): > 67.5 µM (inactive)

COc1ccccc1/C=N\Nc1ccccc1[N+](=O)[O-]
IC50 [18]: > 67.6 µM (inactive)
IC50 (HEK293): > 67.6 µM (inactive)
